Paper PMC5065625, “Structure-mechanism-based engineering of chemical regulators targeting distinct pathological factors in Alzheimer's disease” (Nature Communications, 2016)

Key:
5 × FAD AD mouse model = test: Morris water maze test; type: in vivo; details: 1 mg kg^−1 daily i.p., 30 days
Procedure: Chemicals used were freshly prepared shortly before administration to the animals. We treated 5 × FAD mice with 1 (1 mg kg^−1 of body weight) or the vehicle (1% v/v DMSO in 20 mM HEPES, pH 7.4, 150 mM NaCl) starting at 3 months of age, which is the same method used in our previous studies. 1 was daily injected into the lower abdomen of the 5 × FAD mice for 30 days.
Mice were subjected to the Morris water maze test to assess their performance of spatial learning and memory. The water maze was a circular plastic pool (120 cm diameter) and filled with murky water (21.0±1.0 °C). A cylindrical escape platform (15 cm diameter) stood 0.5 cm under the water surface. Three hours after the 30th compound treatment, the mice were allowed the first training to swim and find the hidden escape platform in the water with three repeats per training. Thereafter, they daily tried the task on the next 4 consecutive days. Three hours after the final escape test, the platform was removed, and the mice exercised a probe trial for 60 s. The animal performance was traced with SMART Video Tracking System (Harvard Apparatus, Holliston, MA, USA).

[1] = UV–vis variable-pH titration (pKa); type: physicochemical; details: aqueous solution (10 mM NaOH, 100 mM NaCl) titrated with HCl, 100 μM
Procedure: (§1) The pKa value for 2 was determined by UV–vis variable-pH titrations as previously reported. To establish the pKa value, a solution (10 mM NaOH, pH 12, 100 mM NaCl) of 2 (100 μM) was titrated with small amounts of HCl. At least 30 spectra were recorded in the range of pH 2–10. Similarly, a solution containing CuCl2 and 2 (50 μM) in a metal to ligand ratio of 1:2 was titrated with small additions of HCl and at least 30 spectra were recorded over the range pH 2–7. The acidity and stability constants were calculated by using the HypSpec program (Protonic Software, UK)[56]. Speciation diagrams were modelled in the HySS2009 program (Protonic Software)[57].

[2] = UV–vis variable-pH titration of Cu(II)–2 (binding affinity)
Procedure: as §1

metal-free Aβ40/Aβ42 = metal-free Aβ40/Aβ42 (Homo sapiens, UniProt P05067); test: Aβ aggregation inhibition/disaggregation experiments (gel/western blot, TEM), metal-free; type: biochemical; details: Aβ 25 μM, compound 50 μM, 37 °C, 24 h; gel/western blot and TEM
Procedure: The ability of 1–4 to control the aggregation of both metal-free Aβ and metal-Aβ in inhibition (Fig. 2) and disaggregation experiments (Supplementary Fig. 1) was evaluated using the two major Aβ isoforms (Aβ40/Aβ42)[1][2][3][6][16] found in the AD-affected brain. Molecular weight (MW) distributions and morphologies of the resulting Aβ species were determined by gel electrophoresis followed by western blotting (gel/western blot) and transmission electron microscopy (TEM). Generally, under the experimental conditions employed herein, compound-free Aβ samples with and without metal ions assemble into a distribution of large aggregates that are too big to penetrate into the gel matrix, which yields very little smearing in the gel/western blots, but they can be visualized by TEM. […]
Before experiments, Aβ40 or Aβ42 was dissolved in ammonium hydroxide (NH4OH; 1% v/v, aq). […] The concentration of the solution was determined by measuring the absorbance of the solution at 280 nm (ɛ=1,450 M^–1 cm^–1 for Aβ40; ɛ=1,490 M^–1 cm^–1 for Aβ42). […]
The Aβ samples from in vivo or in vitro experiments were analysed by gel electrophoresis followed by western blotting using an anti-Aβ antibody (6E10)[24][25][27][28][29]. […]

Chain of metal-free Aβ40/Aβ42 (P05067 672-711 limits assumed): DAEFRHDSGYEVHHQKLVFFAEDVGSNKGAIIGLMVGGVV

In the case of `Nc1ccc(NCc2ccccn2)cc1` [compound 1, N^1-(pyridin-2-ylmethyl)benzene-1,4-diamine], the “Finding the hidden escape platform (trial trainings)” value (5 × FAD AD mouse model) is reported as “faster than the vehicle-treated 5 × FAD mice” and the “Probe trials, long-term spatial memory” value (5 × FAD AD mouse model) is reported as “significant improvement of the long-term spatial memory”.
For `COc1cc(NCc2ccccn2)cc(OC)c1` [compound 2, 3,5-dimethoxy-N-(pyridin-2-ylmethyl)aniline], the pKa [1] was 5, the “logβ (Cu + L = CuL)” value ([2]; Cu(II):L = 1:2, [2] = 50 μM) was 5.6(8) and the “Approximate dissociation constant for Cu(II), 1:1 complex” value ([2]; UV–vis variable-pH titrations) was “micromolar range”. The “pCu (=−log[Cu(II)]free)” value ([2]; pH 6.6) was 6.24.
In the case of `CN(C)c1ccc(NCc2ccc[nH]2)cc1` [compound 4, N^1-((1H-pyrrol-2-yl)methyl)-N^4,N^4-dimethylbenzene-1,4-diamine], the “Modulation of metal-free Aβ aggregation” value (metal-free Aβ40/Aβ42) is reported as “pronounced influence on metal-free Aβ aggregation”.
